Source: the supplement of paper PMC10307832

How the values were obtained:
Experiment in all cases: relative viability (nuclei count vs DMSO), 5 days (fraction); higher = more cells survive
CAL-12T = system: CAL-12T
Procedure, shortened: (§1)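 Lung cancer cell lines, seeded in 1536-well plates, were treated the following day by pin tool with a single drug or with five library-drug doses (not always all listed) in √10 steps on top of a fixed anchor-drug dose. Cells were fixed and nuclei stained in one step after 5 days, and nuclei were counted. Relative viability is the nuclei count for treated wells divided by that for vehicle wells, reported as medians of duplicate plates.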

NCI-H2009 = system: NCI-H2009
Procedure, shortened: as §1

PC-14 = system: PC-14
Procedure, shortened: as §1

HCC-44 = system: HCC-44
Procedure, shortened: as §1

LCLC-97TM1 = system: LCLC-97TM1
Procedure, shortened: as §1

NCI-H727 = system: NCI-H727
Procedure, shortened: as §1

NCI-H2170 = system: NCI-H2170
Procedure, shortened: as §1

HCC-366 = system: HCC-366
Procedure, shortened: as §1

COR-L 105 = system: COR-L 105
Procedure, shortened: as §1

HCC-15 = system: HCC-15
Procedure, shortened: as §1

NCI-H2126 = system: NCI-H2126
Procedure, shortened: as §1

Cc1cnc(-c2cnc(NCCNc3ccc(C#N)cn3)nc2-c2ccc(Cl)cc2Cl)[nH]1 + CC1(C)CCC(c2ccc(Cl)cc2)=C(CN2CCN(c3ccc(C(=O)NS(=O)(=O)c4ccc(N[C@H](CCN5CCOCC5)CSc5ccccc5)c(S(=O)(=O)C(F)(F)F)c4)cc3)CC2)C1 [Navitoclax] (partner 0.5 µM)
relative viability (CAL-12T; first compound 0.08 µM): 1.29 | relative viability (CAL-12T; first compound 0.253 µM): 1.15 | relative viability (CAL-12T; first compound 0.8 µM): 1.18 | relative viability (CAL-12T; first compound 2.53 µM): 1.06 | relative viability (NCI-H2009; first compound 0.08 µM): 1.15 | relative viability (NCI-H2009; first compound 0.253 µM): 1.16 | relative viability (NCI-H2009; first compound 0.8 µM): 1.28 | relative viability (NCI-H2009; first compound 2.53 µM): 1.06 | relative viability (PC-14; first compound 0.08 µM): 1.1 | relative viability (PC-14; first compound 0.253 µM): 0.883 | relative viability (PC-14; first compound 0.8 µM): 1 | relative viability (PC-14; first compound 2.53 µM): 0.895 | relative viability (HCC-44; first compound 0.08 µM): 1.05 | relative viability (HCC-44; first compound 0.253 µM): 0.792 | relative viability (HCC-44; first compound 0.8 µM): 0.971 | relative viability (HCC-44; first compound 2.53 µM): 1.03 | relative viability (LCLC-97TM1; first compound 0.08 µM): 0.41 | relative viability (LCLC-97TM1; first compound 0.253 µM): 0.377 | relative viability (LCLC-97TM1; first compound 0.8 µM): 0.42 | relative viability (LCLC-97TM1; first compound 2.53 µM): 0.4 | relative viability (NCI-H727; first compound 0.08 µM): 0.45 | relative viability (NCI-H727; first compound 0.253 µM): 0.432 | relative viability (NCI-H727; first compound 0.8 µM): 0.476 | relative viability (NCI-H727; first compound 2.53 µM): 0.364 | relative viability (NCI-H2170; first compound 0.08 µM): 0.638 | relative viability (NCI-H2170; first compound 0.253 µM): 0.51 | relative viability (NCI-H2170; first compound 0.8 µM): 0.517 | relative viability (NCI-H2170; first compound 2.53 µM): 0.537 | relative viability (HCC-366; first compound 0.08 µM): 1.04 | relative viability (HCC-366; first compound 0.253 µM): 1.02 | relative viability (HCC-366; first compound 0.8 µM): 1.09 | relative viability (HCC-366; first compound 2.53 µM): 0.89 | relative viability (COR-L 105; first compound 0.08 µM): 0.875 | relative viability (COR-L 105; first compound 0.253 µM): 0.686 | relative viability (COR-L 105; first compound 0.8 µM): 1.54 | relative viability (COR-L 105; first compound 2.53 µM): 0.558 | relative viability (HCC-15; first compound 0.08 µM): 0.737 | relative viability (HCC-15; first compound 0.253 µM): 0.622 | relative viability (HCC-15; first compound 0.8 µM): 0.65 | relative viability (HCC-15; first compound 2.53 µM): 0.578 | relative viability (NCI-H2126; first compound 0.08 µM): 0.881 | relative viability (NCI-H2126; first compound 0.253 µM): 0.897 | relative viability (NCI-H2126; first compound 0.8 µM): 0.878 | relative viability (NCI-H2126; first compound 2.53 µM): 0.835
